This data set deals with rodent lifetime carcinogenesis bioassay, tumor incidence TD50. The experiment in a line: carcinogenic potency in animals, long-term in vivo studies, CPDB compilation (AID 1745844).
Setting [1] is: rat, strain Charles River CD (Sprague-Dawley), males, in feed, site: liver, lesion: one or several types, types not named, dosed 52 weeks, study length 52 weeks.

Structures are written as SMILES. Activity calls are given as the source filed them. How the calls were made is not given here.

With `O=C(O[C@@H]1Cc2c(O)cc(O)cc2O[C@@H]1c1cc(O)c(O)c(O)c1)c1cc(O)c(O)c(O)c1`, the carcinogen call (mouse, strain C3H/HeN, males, in drinking water, site: liver, lesion: several types, types named in the paper, dosed 58 weeks, study length 58 weeks) is “negative (inactive)”.
For `C=CC`, the carcinogen call is “negative (inactive)” (mouse, strain B6C3F1, females, inhaled, site: any site (literature study), lesion: several types, types named in the paper, dosed 103 weeks, study length 105 weeks); “negative (inactive)” (mouse, strain B6C3F1, males, inhaled, site: any site (literature study), lesion: several types, types named in the paper, dosed 103 weeks, study length 105 weeks); “negative (inactive)” (mouse, strain Swiss, males, inhaled, site: any site (literature study), lesion: malignant tumor, dosed 78 weeks, study length 104 weeks); “negative (inactive)” (mouse, strain Swiss, males, inhaled, site: any site (literature study), lesion: several types, types named in the paper, dosed 78 weeks, study length 104 weeks); “negative (inactive)” (mouse, strain Swiss, males, inhaled, site: liver, lesion: hepatoma, dosed 78 weeks, study length 104 weeks); “negative (inactive)” (mouse, strain Swiss, males, inhaled, site: lung, lesion: adenocarcinoma, dosed 78 weeks, study length 104 weeks). Further, the carcinogen call was “negative (inactive)” (mouse, strain Swiss, males, inhaled, site: lung, lesion: adenoma, dosed 78 weeks, study length 104 weeks) and “negative (inactive)” (rat, strain Fischer 344, females, inhaled, site: any site (literature study), lesion: several types, types named in the paper, dosed 103 weeks, study length 104 weeks). Besides, the TD50 is 20100 mg/kg/day (inactive) (mouse, strain Swiss, females, inhaled, site: any site (literature study), lesion: malignant tumor, dosed 78 weeks, study length 104 weeks); 10100 mg/kg/day (inactive) (mouse, strain Swiss, females, inhaled, site: any site (literature study), lesion: several types, types named in the paper, dosed 78 weeks, study length 104 weeks); 286000 mg/kg/day (inactive) (mouse, strain Swiss, females, inhaled, site: liver, lesion: hepatoma, dosed 78 weeks, study length 104 weeks); 1.2e+06 mg/kg/day (inactive) (mouse, strain Swiss, females, inhaled, site: lung, lesion: adenocarcinoma, dosed 78 weeks, study length 104 weeks); 19800 mg/kg/day (inactive) (mouse, strain Swiss, females, inhaled, site: lung, lesion: adenoma, dosed 78 weeks, study length 104 weeks); 20500 mg/kg/day (rat, strain Fischer 344, females, inhaled, site: liver, lesion: hepatocellular adenoma + hepatocellular carcinoma + neoplastic nodule, dosed 103 weeks, study length 104 weeks). In addition, the TD50 was 15500 mg/kg/day (inactive) (rat, strain Fischer 344, males, inhaled, site: any site (literature study), lesion: several types, types named in the paper, dosed 103 weeks, study length 104 weeks) and 4610 mg/kg/day (rat, strain Fischer 344, males, inhaled, site: liver, lesion: hepatocellular adenoma + hepatocellular carcinoma + neoplastic nodule, dosed 103 weeks, study length 104 weeks).
As to `FC(F)OC(Cl)C(F)(F)F` (stereo not drawn), the carcinogen call reads like this: (mouse, strain Swiss Webster, females, inhaled, site: liver, lesion: basophil adenoma, dosed 78 weeks, study length 81 weeks) “negative (inactive)”; (mouse, strain Swiss Webster, males, inhaled, site: liver, lesion: basophil adenoma, dosed 78 weeks, study length 81 weeks) “negative (inactive)”; (mouse, strain Swiss Webster, males, inhaled, site: lung, lesion: alveolar-cell adenoma, dosed 78 weeks, study length 81 weeks) “negative (inactive)”. Moreover, under “mouse, strain Swiss Webster, females, inhaled, site: lung, lesion: alveolar-cell adenoma, dosed 78 weeks, study length 81 weeks”, the TD50 was 30000 mg/kg/day (inactive).
For `CC1=C(C)C(=O)C(C(CCCCCC(=O)O)c2ccccc2)=C(C)C1=O` (stereo not drawn), the carcinogen call is “negative (inactive)” (rat, strain Fischer 344/Jcl, females, in feed, site: liver, lesion: one or several types, types not named, dosed 52 weeks, study length 52 weeks) and “negative (inactive)” (rat, strain Fischer 344/Jcl, males, in feed, site: liver, lesion: one or several types, types not named, dosed 52 weeks, study length 52 weeks).
Turning to `CC(O)CCl` (stereo not drawn), the carcinogen call reads like this: (mouse, strain B6C3F1, females, in drinking water, site: any site (literature study), lesion: several types, types named in the paper, dosed 105 weeks, study length 105 weeks) “negative (inactive)”; (mouse, strain B6C3F1, males, in drinking water, site: any site (literature study), lesion: several types, types named in the paper, dosed 104 weeks, study length 104 weeks) “negative (inactive)”; (rat, strain Fischer 344, females, in drinking water, site: any site (literature study), lesion: several types, types named in the paper, dosed 104 weeks, study length 104 weeks) “negative (inactive)”; (rat, strain Fischer 344, males, in drinking water, site: any site (literature study), lesion: several types, types named in the paper, dosed 104 weeks, study length 104 weeks) “negative (inactive)”. Further, the TD50 reads like this: (mouse, strain B6C3F1, females, in drinking water, site: liver, lesion: hepatocellular adenoma + hepatoblastoma + hepatocellular carcinoma, dosed 105 weeks, study length 105 weeks) 1040 mg/kg/day; (rat, strain Fischer 344, females, in drinking water, site: liver, lesion: hepatocellular adenoma + hepatoblastoma + hepatocellular carcinoma, dosed 104 weeks, study length 104 weeks) 707 mg/kg/day; (rat, strain Fischer 344, males, in drinking water, site: liver, lesion: hepatocellular adenoma + hepatoblastoma + hepatocellular carcinoma, dosed 104 weeks, study length 104 weeks) 427 mg/kg/day.
Turning to `COC(=O)C(C)(C)Oc1ccc(-c2ccc(Cl)cc2)cc1`, the TD50 reads like this: (mouse, strain AP Alderly Park, females, in feed, site: liver, lesion: hepatocellular adenoma, dosed 78 weeks, study length 78 weeks) 2.27 mg/kg/day; (mouse, strain AP Alderly Park, females, in feed, site: liver, lesion: hepatocellular carcinoma, dosed 78 weeks, study length 78 weeks) 8.3 mg/kg/day; (mouse, strain AP Alderly Park, females, in feed, site: liver, lesion: several types, types named in the paper, dosed 52 weeks, study length 78 weeks) 25 mg/kg/day; (mouse, strain AP Alderly Park, females, several routes, site: liver, lesion: hepatocellular adenoma, dosed 78 weeks, study length 78 weeks) 48.5 mg/kg/day; (mouse, strain AP Alderly Park, females, several routes, site: liver, lesion: hepatocellular carcinoma, dosed 78 weeks, study length 78 weeks) 13.4 mg/kg/day; (mouse, strain AP Alderly Park, females, several routes, site: lung, lesion: adenoma, dosed 78 weeks, study length 78 weeks) 890 mg/kg/day. Further, the TD50 (mouse, strain AP Alderly Park, males, in feed, site: liver, lesion: hepatocellular adenoma, dosed 78 weeks, study length 78 weeks) was 2.75 mg/kg/day; the TD50 (mouse, strain AP Alderly Park, males, in feed, site: liver, lesion: hepatocellular carcinoma, dosed 78 weeks, study length 78 weeks) was 0.858 mg/kg/day; the TD50 (mouse, strain AP Alderly Park, males, in feed, site: liver, lesion: several types, types named in the paper, dosed 26 weeks, study length 78 weeks) is 2.08 mg/kg/day; the TD50 (mouse, strain AP Alderly Park, males, in feed, site: liver, lesion: several types, types named in the paper, dosed 52 weeks, study length 78 weeks) was 5.94 mg/kg/day; the TD50 (mouse, strain AP Alderly Park, males, several routes, site: liver, lesion: hepatocellular carcinoma, dosed 78 weeks, study length 78 weeks) is 16.8 mg/kg/day; the TD50 (rat, strain Alpk:APfSD, females, in feed, site: liver, lesion: hepatocellular adenoma, dosed 104 weeks, study length 104 weeks) is 460 mg/kg/day. For the same compound, the TD50 by setting is: (rat, strain Alpk:APfSD, females, in feed, site: liver, lesion: hepatocellular carcinoma, dosed 104 weeks, study length 104 weeks) 5.88 mg/kg/day; (rat, strain Alpk:APfSD, males, in feed, site: liver, lesion: hepatocellular adenoma, dosed 104 weeks, study length 104 weeks) 17.4 mg/kg/day; (rat, strain Alpk:APfSD, males, in feed, site: liver, lesion: hepatocellular carcinoma, dosed 104 weeks, study length 104 weeks) 2.87 mg/kg/day; (rat, strain Alpk:APfSD, males, in feed, site: pancreas, exocrine, lesion: adenoma, dosed 52 weeks, study length 104 weeks) 1.44 mg/kg/day; (rat, strain Alpk:APfSD, males, in feed, site: pancreas, exocrine, lesion: adenoma, dosed 104 weeks, study length 104 weeks) 18.5 mg/kg/day; (rat, strain Alpk:APfSD, males, in feed, site: testis, lesion: Leydig-cell adenoma, dosed 104 weeks, study length 104 weeks) 2.93 mg/kg/day. In addition, for the setting “rat, strain Fischer 344, males, in feed, site: liver, lesion: hepatocellular carcinoma, dosed 75 weeks, study length 75 weeks”, the carcinogen call was “positive”.
Take `OC[C@H]1O[C@@H]2O[C@H]3[C@H](O)[C@@H](O)[C@@H](O[C@H]4[C@H](O)[C@@H](O)[C@@H](O[C@H]5[C@H](O)[C@@H](O)[C@@H](O[C@H]6[C@H](O)[C@@H](O)[C@@H](O[C@H]7[C@H](O)[C@@H](O)[C@@H](O[C@H]8[C@H](O)[C@@H](O)[C@@H](O[C@H]1[C@H](O)[C@H]2O)O[C@@H]8CO)O[C@@H]7CO)O[C@@H]6CO)O[C@@H]5CO)O[C@@H]4CO)O[C@@H]3CO`: the carcinogen call is “negative (inactive)” (mouse, strain Charles River CD1, females, in feed, site: lung, lesion: several types, types named in the paper, dosed 104 weeks, study length 104 weeks); “negative (inactive)” (rat, strain Charles River CD (Sprague-Dawley), females, in feed, site: liver, lesion: one or several types, types not named, dosed 52 weeks, study length 52 weeks); “negative (inactive)” under setting [1]; “negative (inactive)” (rat, strain F344/DuCrj, females, in feed, site: liver, lesion: hepatocellular adenoma, dosed 104 weeks, study length 109 weeks); “negative (inactive)” (rat, strain F344/DuCrj, males, in feed, site: any site (literature study), lesion: several types, types named in the paper, dosed 104 weeks, study length 109 weeks); “negative (inactive)” (rat, strain F344/DuCrj, males, in feed, site: liver, lesion: hepatocellular adenoma, dosed 104 weeks, study length 109 weeks). In addition, the TD50 is, setting by setting: (mouse, strain Charles River CD1, males, in feed, site: lung, lesion: several types, types named in the paper, dosed 93 weeks, study length 93 weeks) 728 mg/kg/day (inactive); (rat, strain F344/DuCrj, females, in feed, site: any site (literature study), lesion: several types, types named in the paper, dosed 104 weeks, study length 109 weeks) 85900 mg/kg/day (inactive); (rat, strain Fischer 344, females, in feed, site: uterus, lesion: adenocarcinoma, dosed 129 weeks, study length 129 weeks) 22700 mg/kg/day (inactive); (rat, strain Fischer 344, males, in feed, site: testis, lesion: interstitial-cell tumor, dosed 122 weeks, study length 122 weeks) 157 mg/kg/day (inactive).
As to `CCNc1nc(Cl)nc(NC(C)(C)C#N)n1`, the TD50 is 280 mg/kg/day (rat, strain Charles River CD (Sprague-Dawley), females, in feed, site: liver, lesion: hepatocellular adenoma, dosed 105 weeks, study length 105 weeks); 6.65 mg/kg/day (rat, strain Charles River CD (Sprague-Dawley), females, in feed, site: mammary gland, lesion: adenocarcinoma, dosed 105 weeks, study length 105 weeks); 8.77 mg/kg/day (rat, strain Charles River CD (Sprague-Dawley), females, in feed, site: mammary gland, lesion: benign tumor, dosed 52 weeks, study length 52 weeks); 140 mg/kg/day (rat, strain Charles River CD (Sprague-Dawley), females, in feed, site: mammary gland, lesion: carcinosarcoma, dosed 105 weeks, study length 105 weeks); 3.03 mg/kg/day (rat, strain Charles River CD (Sprague-Dawley), females, in feed, site: mammary gland, lesion: fibroadenoma, dosed 52 weeks, study length 52 weeks); 6.33 mg/kg/day (rat, strain Charles River CD (Sprague-Dawley), females, in feed, site: mammary gland, lesion: malignant tumor, dosed 105 weeks, study length 105 weeks). For the same compound, for the setting “rat, strain Charles River CD (Sprague-Dawley), females, in feed, site: mammary gland, lesion: several types, types named in the paper, dosed 105 weeks, study length 105 weeks”, the TD50 was 22.9 mg/kg/day. The carcinogen call runs as follows: (rat, strain Charles River CD (Sprague-Dawley), males, in feed, site: liver, lesion: hepatocellular adenoma, dosed 104 weeks, study length 104 weeks) “negative (inactive)”; under setting [1], “negative (inactive)”.
